# Measurements taken from patent US20060110803A1 (Crucell Holland B.V., priority 2003, published 2006).
# System: antibodies in sera of individuals which have been and/or are infected by SARS-CoV (SARS-green, SARS-yellow, 1a, 1b, 2, 6, 37, 62, London)
# Format: binding, human
Sequence,"recognition by sera of SARS-CoV infected individuals, looped/cyclic form","recognition by sera of SARS-CoV infected individuals, linear form"
LDKVEAEVQIDRLIT [SEQ ID NO:994],recognized in looped/cyclic form,–
IFLLFLTLTSGSDLD [SEQ ID NO:42],recognized in looped/cyclic form,–
SVDCNMYICGDSTEC [SEQ ID NO:745],–,recognized in linear form
FSPDGKPCTPPALNC [SEQ ID NO:488],–,recognized in linear form
ATAGWTFGAGAALQI [SEQ ID NO:892],–,recognized in linear form
LTLTSGSDLDRCTTF [SEQ ID NO:47],recognized in looped/cyclic form,–
LFLTLTSGSDLDRCT [SEQ ID NO:45],recognized in looped/cyclic form,–
CTPPALNCYWPLNDY [SEQ ID NO:495],recognized in looped/cyclic form,–
DCNMYICGDSTECAN [SEQ ID NO:747],–,recognized in linear form
QNAQALNTLVKQLSS [SEQ ID NO:964],recognized in looped/cyclic form,–
VWLGFIAGLIAIVMV [SEQ ID NO:1212],recognized in looped/cyclic form,–
IQESLTTTSTALGKL [SEQ ID NO:944],recognized in looped/cyclic form,–
GFIAGLIAIVMVTIL [SEQ ID NO:1215],recognized in looped/cyclic form,–
SPDGKPCTPPALNCY [SEQ ID NO:489],–,recognized in linear form
CNMYICGDSTECANL [SEQ ID NO:748],–,recognized in linear form
ELDSFKEELDKYFKN [SEQ ID NO:1142],recognized in looped/cyclic form,–
SNVPFSPDGKPCTPP [SEQ ID NO:484],–,recognized in linear form
LLFLTLTSGSDLDRC [SEQ ID NO:44],recognized in looped/cyclic form,–
WYVWLGFIAGLIAIV [SEQ ID NO:1210],recognized in looped/cyclic form,–
FLLFLTLTSGSDLDR [SEQ ID NO:43],recognized in looped/cyclic form,–
KNHTSPDVDLGDISG [SEQ ID NO:1153],recognized in looped/cyclic form,–

Sequence,"recognition by sera of SARS-CoV infected individuals, looped/cyclic form","recognition by sera of SARS-CoV infected individuals, linear form"
SSMRGVYYPDEIFRS [SEQ ID NO:74],recognized in looped/cyclic form,–
PELDSFKEELDKYFK [SEQ ID NO:1141],recognized in looped/cyclic form,–
FIAGLIAIVMVTILL [SEQ ID NO:1216],recognized in looped/cyclic form,–
EVAKNLNESLIDLQE [SEQ ID NO:1184],recognized in looped/cyclic form,–
LTSGSDLDRCTTFDD [SEQ ID NO:49],recognized in looped/cyclic form,–
LNEVAKNLNESLIDL [SEQ ID NO:1182],recognized in looped/cyclic form,–
YDPLQPELDSFKEEL [SEQ ID NO:1136],recognized in looped/cyclic form,–
TATAGWTFGAGAALQ [SEQ ID NO:891],–,recognized in linear form
TTEVMPVSMAKTSVD [SEQ ID NO:733],recognized in looped/cyclic form,–
TSGSDLDRCTTFDDV [SEQ ID NO:50],recognized in looped/cyclic form,–
DKVEAEVQIDRLITG [SEQ ID NO:995],recognized in looped/cyclic form,–
VYYPDEIFRSDTLYL [SEQ ID NO:79],recognized in looped/cyclic form,–
ICGDSTECANLLLQY [SEQ ID NO:752],–,recognized in linear form
TAGWTFGAGAALQIP [SEQ ID NO:893],–,recognized in linear form
SPDVDLGDISGINAS [SEQ ID NO:1157],recognized in looped/cyclic form,–
DPLQPELDSFKEELD [SEQ ID NO:1137],recognized in looped/cyclic form,–
YICGDSTECANLLLQ [SEQ ID NO:751],–,recognized in linear form
TSVDCNMYICGDSTE [SEQ ID NO:744],–,recognized in linear form
TEVMPVSMAKTSVDC [SEQ ID NO:734],recognized in looped/cyclic form,–
QHTSSMRGVYYPDEI [SEQ ID NO:71],recognized in looped/cyclic form,–
VNQNAQALNTLVKQL [SEQ ID NO:962],recognized in looped/cyclic form,–

Sequence,"recognition by sera of SARS-CoV infected individuals, looped/cyclic form","recognition by sera of SARS-CoV infected individuals, linear form"
FLTLTSGSDLDRCTT [SEQ ID NO:46],recognized in looped/cyclic form,–
VPFSPDGKPCTPPAL [SEQ ID NO:486],–,recognized in linear form
GTATAGWTFGAGAAL [SEQ ID NO:890],–,recognized in linear form
PPALNCYWPLNDYGF [SEQ ID NO:497],recognized in looped/cyclic form,–
SMRGVYYPDEIFRSD [SEQ ID NO:75],recognized in looped/cyclic form,–
ALNTLVKQLSSNFGA [SEQ ID NO:968],recognized in looped/cyclic form,–
TVYDPLQPELDSFKE [SEQ ID NO:1134],recognized in looped/cyclic form,–
PLQPELDSFKEELDK [SEQ ID NO:1138],recognized in looped/cyclic form,–
QPELDSFKEELDKYF [SEQ ID NO:1140],recognized in looped/cyclic form,–
RLNEVAKNLNESLID [SEQ ID NO:1181],recognized in looped/cyclic form,–
ELDKYFKNHTSPDVD [SEQ ID NO:1147],recognized in looped/cyclic form,–
QESLTTTSTALGKLQ [SEQ ID NO:945],recognized in looped/cyclic form,–
DSFKEELDKYFKNHT [SEQ ID NO:1144],recognized in looped/cyclic form,–
NVPFSPDGKPCTPPA [SEQ ID NO:485],–,recognized in linear form
HTSSMRGVYYPDEIF [SEQ ID NO:72],recognized in looped/cyclic form,–
HTSPDVDLGDISGIN [SEQ ID NO:1155],recognized in looped/cyclic form,–
TLTSGSDLDRCTTFD [SEQ ID NO:48],recognized in looped/cyclic form,–
KTSVDCNMYICGDST [SEQ ID NO:743],–,recognized in linear form
NLNESLIDLQELGKY [SEQ ID NO:1188],recognized in looped/cyclic form,–
NAQALNTLVKQLSSN [SEQ ID NO:965],recognized in looped/cyclic form,–
VYDPLQPELDSFKEE [SEQ ID NO:1135],recognized in looped/cyclic form,–

Sequence,"recognition by sera of SARS-CoV infected individuals, looped/cyclic form","recognition by sera of SARS-CoV infected individuals, linear form"
LDKYFKNHTSPDVDL [SEQ ID NO:1148],recognized in looped/cyclic form,–
ESLTTTSTALGKLQD [SEQ ID NO:946],recognized in looped/cyclic form,–
RLDKVEAEVQIDRLI [SEQ ID NO:993],recognized in looped/cyclic form,–
MYICGDSTECANLLL [SEQ ID NO:750],–,recognized in linear form
INNTVYDPLQPELDS [SEQ ID NO:1131],recognized in looped/cyclic form,–
QIQESLTTTSTALGK [SEQ ID NO:943],recognized in looped/cyclic form,–
NGLTVLPPLLTDDMI [SEQ ID NO:866],recognized in looped/cyclic form,–
GSDLDRCTTFDDVQA [SEQ ID NO:52],recognized in looped/cyclic form,–
NEVAKNLNESLIDLQ [SEQ ID NO:1183],recognized in looped/cyclic form,–
LGFIAGLIAIVMVTI [SEQ ID NO:1214],recognized in looped/cyclic form,–
LVSGTATAGWTFGAG [SEQ ID NO:887],–,recognized in linear form
NMYICGDSTECANLL [SEQ ID NO:749],–,recognized in linear form
DKYFKNHTSPDVDLG [SEQ ID NO:1149],recognized in looped/cyclic form,–
TSSMRGVYYPDEIFR [SEQ ID NO:73],recognized in looped/cyclic form,–
FIFLLFLTLTSGSDL [SEQ ID NO:41],recognized in looped/cyclic form,–
ALVSGTATAGWTFGA [SEQ ID NO:886],–,recognized in linear form
MRGVYYPDEIFRSDT [SEQ ID NO:76],recognized in looped/cyclic form,–
YFKNHTSPDVDLGDI [SEQ ID NO:1151],recognized in looped/cyclic form,–
DRLNEVAKNLNESLI [SEQ ID NO:1180],recognized in looped/cyclic form,–
